Experimental data reported in US20040091860A1 (priority 1999, published 2004).

Key:
[1] = system: rice blast fungus (M. grisea race(003)); type: in vivo, Magnaporthe grisea; details: compatible rice treated with probenazole (100 mg/ml) two days before M. grisea race(003), 1×10^5 spores/ml; untreated compatible rice: days 4 and 5
[2] = system: POX genes; type: in vivo, Oryza sativa cv. Nipponbare; details: probenazole-treated rice, before and 2, 3, 4 and 5 days after rice blast fungus treatment; FIG. 24
[3] = system: rice POX genes; parameters: species or system Oryza sativa cv. Nipponbare
[4] = system: rice POX genes; test: Inducibility of rice peroxidases to ethephon and MeJA (RNA gel blot analysis); type: in vivo, Oryza sativa cv. Nipponbare; details: for response of R2151 gene expression to stimuli: R2151 gene (group A1), FIG. 8(d), day 16, compared with control; for expression of R2693, R2329, S11222, prxRPA, R2576, R2184 and C52903 POX genes: leaf blades of 16-day-old seedlings, 1 mM ethephon or 25 μM MeJA solution sprayed onto whole plants, 48 hours, versus leaf blade without stress
Experimental: Gene expression was analyzed by subjecting total RNAs isolated by the ATA method (Nagy et al., Reference 35) to RNA gel blot analysis (Ausubel et al., Reference 36).
cDNA fragments containing 3′ untranslated regions of 21 rice POX genes indicated by boxes in FIG. 1 were amplified by the PCR method. The amplified fragments were used as probes specific to the respective POX genes for the RNA gel blot analysis.
The above-described RNAs were subjected to electrophoresis, followed by transcription to a membrane (HyBond N, Amersham). The specific probes were allowed to hybridize, followed by washing for 5 min (once) and for 10 min (twice) in 2×SSC containing 0.1% SDS at room temperature, and then three times in 1×SSC containing 0.1% SDS for 15 min each at 65° C. Subsequently, the membrane was subjected to autoradiography at −80° C. using a film for autoradiography (XA OMT, Kodak) overnight or more. The recovered film was analyzed by the BAS2000 Bioimaging analyzer (Fuji Photo Film Co., Ltd.) or Phosphor Imager SI (Molecular Dynamics) in accordance with the manufacturer's instruction. The amount of RNA loaded was confirmed by monitoring the level of ribosome RNA (rRNA) stained by methylene blue. The expression amounts of the POXs were compared with each other with reference to the rRNA levels.
16-day-old seedlings were produced under the conditions described in Example 2. With these seedlings, the inducibility of rice peroxidases to ethephon (an ethylene release factor) and MeJA (a wound information transfer substance) was analyzed. For ethephon stimulus, 1 mM ethephon solution containing 0.05% ethanol was used. For MeJA stimulus, 25 μM MeJA solution containing 0.125% Triton X-100 was used. These solutions were sprayed onto whole plants, and maintained for 48 hours.
RNAs were extracted from the leaf blades of stimulated rice plants in a manner as described in Example 2. For each POX, expression specificity was analyzed. As a control, leaf blade without a stress were used.

SMILES	response of R2151 gene expression to stimuli [4]	expression of R2693, R2329, S11222, prxRPA, R2576, R2184 and C52903 POX genes [4]	also measured
C=CCOC1=NS(=O)(=O)c2ccccc21 [probenazole]			lesion spot formation found on days after rice blast fungus treatment [1]: 2 to 3 days; expression patterns with E2184, R2576, R2693 and R2329 as probes [2]: significantly similar to the transition pattern of formation of lesion spots
C[n+]1ccc(-c2cc[n+](C)cc2)cc1 [paraquat, 1,1-dimethyl-4,4-dipyridinium dichloride]			expression of R2329, prxRPA, R2576 and C52903 [3]: induced; expression of apoplastic (R2329, prx2576 and R2576) and vacuolar (e.g., R2184 and C52903) POXs [3]: induced the expression
O=P(O)(O)CCCl [Ethephon, ethephon]	reducible responses	induced expression	
CC/C=C\CC1C(=O)CCC1CC(=O)OC (centres unmarked) [MeJA, methyl jasmonate]	reducible responses	induced expression	
